# Measurements: patent US20230348378A1, “SMALL MOLECULE ALBUMIN BINDERS” (Oregon Health & Science University, priority 2020, published 2023)
# Starred links: 1 amine or outer side, 2 acyl side, 3 side chain; linkers in the order of their positions; H or OH if unused. Positions of bridges follow the written chain, without caps; N, C: chain ends. Non-standard residues stand in square brackets, D forms with d. Residues, ends and D or L forms follow the SMILES beside them. *: point of attachment. DOTA = O=C(O)CN1CCN(CC(=O)O)CCN(CC(=O)*)CCN(CC(=O)O)CC1; NH(CH2CH2O)4CH2CO = O=C(COCCOCCOCCOCCN[*:1])[*:2]; X2 = O=C(CCCc1ccc(C(F)(F)F)c(F)c1)*; X1 = O=C(CCCc1ccc(C(F)(F)F)cc1)*
# How the values were obtained:
# [1] = test system: PSMA+ PC3pip xenograft; design: species or system mice; details: mouse, in vivo
# Description: Biodistribution studies were performed 2 weeks after the tumor inoculation, when the size of tumor reached 5 mm. ^111In-labeled albumin binder-radioligand conjugates (1.85 MBq, 100 μL) were then administered via a lateral tail vein. The mice were sacrificed at 1, 2, 16, 24, or 48 h post-injections. Selected organs were collected and weighed, and the radioactivity was measured by the γ counter (Packard, Cobra E5003). The results were calculated as percentage of the injected dose per gram of mass (% ID/g).
# [2] = test system: BxPC3 xenograft; test: Biodistribution in mice bearing BxPC3 xenograft; format: in vivo
# [3] = molecular target: human serum albumin (HSA) (Homo sapiens, UniProt P02768); test: In vitro albumin protein binding ultrafiltration assay; details: for change of albumin binding affinity versus the corresponding ABX conjugate: D-ABCF3 vs ABCF3, hABCF3P vs ABCF3P, hABF3P vs ABF3P, εABCF3 vs ABCF3
# Description: Following the published protocol, ultrafiltration assay was performed to assess albumin-binding properties of ^111In or ^64Cu labeled albumin binder-radioligand conjugates. ^111In or ^64Cu radiolabeling was conducted in NH4OAc (0.2 M, pH=7.0) buffer at 80° C. for 30 min with a specific activity of 3.7 MBq/nmol (100 μCi/nmol). The resulting albumin binder-radioligand conjugate (10 μL, 10 μM) was mixed with 100 μL human serum albumin (HSA, 1.0 mM in PBS 1×) and 90 μL PBS, followed by shaking gently at 37° C. for 30 min. After the incubation, 80 μL of each solution was loaded on the Zeba™ spin desalting column (7K MWCO) and centrifuged at 1500 g for 2 min. Radioactivity in 20 μL of each filtration and 10 μL mixture (before filtration) were quantified by the γ counter. The filtration rate of each sample was calculated as filtered counts/(mixture counts×2)×100%, all obtained results were then normalized by setting standard ABCF3 moiety as 74.4%. for the comparison purpose. The experiment was performed with triplicates. For working curve, different final concentrations of HSA varied from 10-1500 μM were used, followed the same protocol.
# [4] = in vivo evaluation of FRGD without albumin binder
# [5] = filtration assay, [HSA]=500 μM, [tracers]=0.5 μM
# human serum albumin (HSA), sequence (P02768 25-609): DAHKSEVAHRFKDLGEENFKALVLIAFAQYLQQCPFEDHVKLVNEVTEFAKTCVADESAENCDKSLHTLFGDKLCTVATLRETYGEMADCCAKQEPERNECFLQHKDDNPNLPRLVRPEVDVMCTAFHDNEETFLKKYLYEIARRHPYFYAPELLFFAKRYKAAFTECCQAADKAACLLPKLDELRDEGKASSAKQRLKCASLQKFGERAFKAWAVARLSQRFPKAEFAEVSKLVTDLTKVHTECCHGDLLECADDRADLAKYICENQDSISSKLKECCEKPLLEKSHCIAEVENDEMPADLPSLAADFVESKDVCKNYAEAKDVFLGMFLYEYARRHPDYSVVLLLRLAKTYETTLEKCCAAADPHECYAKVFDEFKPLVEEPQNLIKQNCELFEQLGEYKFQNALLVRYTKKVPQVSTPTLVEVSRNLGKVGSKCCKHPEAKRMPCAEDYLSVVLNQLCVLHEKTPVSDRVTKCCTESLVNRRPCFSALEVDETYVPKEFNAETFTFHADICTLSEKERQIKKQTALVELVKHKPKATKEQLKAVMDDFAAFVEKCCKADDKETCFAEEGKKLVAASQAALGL
smiles,measurement,setting,value
"O=C(O)CC[C@H](NC(=O)N[C@@H](CCCCNC(=O)[C@H](Cc1ccc2ccccc2c1)NC(=O)[C@H]1CC[C@H](CNC(=O)[C@H](CCCCNC(=O)CN2CCN(CC(=O)O)CCN(CC(=O)O)CCN(CC(=O)O)CC2)NC(=O)CCC(=O)N[C@@H](CCCCNC(=O)CCCc2ccc(C(F)(F)F)cc2)C(=O)O)CC1)C(=O)O)C(=O)O (64Cu complex, metal not drawn) [PSMA617-ABCF3]",increase of specific tumor uptake compared to PSMA617,[1],> 2 ×
same,tumor/nontumor ratios compared to PSMA617,[1],enhance tumor/nontumor ratios
"CC(C)C[C@@H]1NC(=O)[C@H](CC(=O)O)NC(=O)CNC(=O)[C@H](CCCNC(=N)N)NC(=O)[C@H](Cc2ccccc2)NC(=O)[C@H](CCCCN)N(C)C(=O)[C@H]2CCCN2C(=O)[C@H](Cc2ccccc2)NC(=O)[C@H](C)NC1=O (111In complex, metal not drawn) [FRGD]",kidney uptake,"[2]; 111In labeled, without ABCF3",very high
same,non-tumor uptakes,[2]; [4],high non-tumor uptakes
same,tumor uptake,[2]; [4],relatively low tumor uptake
[N-]=[N+]=NCCCC[C@H](NC(=O)CN1CCC(CC(=O)O)CCN(CC(=O)O)CCN(CC(=O)O)CC1)C(=O)NCCCCCC(=O)N[C@@H](CCCCNC(=O)CCCc1ccc(C(F)(F)F)cc1)C(=O)O (some centres unmarked) [ABCF3],filtration percentage (normalized),"[3]; 64Cu-labeled DOTA-albumin binder conjugate, [HSA]=500 μM, [tracers]=0.5 μM, value set as normalisation standard (average)",75%
[N-]=[N+]=NCCCC[C@H](NC(=O)CN1CCC(CC(=O)O)CCN(CC(=O)O)CCN(CC(=O)O)CC1)C(=O)NCCCCCC(=O)N[C@H](CCCCNC(=O)CCCc1ccc(C(F)(F)F)cc1)C(=O)O (stereo partly drawn) [D-ABCF3],change of albumin binding affinity versus the corresponding ABX conjugate,[3]; [5],slightly increased binding affinity
CC(C)C[C@@H]1NC(=O)[C@H](CC(=O)O)NC(=O)CNC(=O)[C@H](CCCNC(=N)N)NC(=O)CNC(=O)[C@H]([C@@H](C)O)NC(=O)[C@@H](NC(=O)[C@H](CCCNC(=N)N)NC(=O)CNC(=O)CN2CCN(CC(=O)O)CCN(CC(=O)O)CCN(CC(=O)O)CC2)CSSC[C@@H](C(=O)N[C@@H](Cc2ccc(O)cc2)C(=O)N2CCC[C@H]2C(=O)N[C@@H](CC(=O)O)C(=O)NCCOCCOCCOCCOCC(=O)N[C@@H](CCCCNC(=O)CCCc2ccc(C(F)(F)F)c(F)c2)C(=O)O)NC(=O)[C@H](CC(C)C)NC(=O)[C@H](CCCNC(=N)N)NC(=O)CNC1=O [SFLAP3-ABCF3-3F] ({DOTA}-GRCTGRGDLGRLCYPD[NH(CH2CH2O)4CH2CO]K(X2)-OH; disulfide 3-13),"in vivo performance (biodistribution, tumor/nontumor ratios)","[2]; SFLAP3 conjugates with various ABX, 24 h",best in vivo performance among all the tested ABX
CC(C)C[C@@H]1NC(=O)[C@H](CC(=O)O)NC(=O)CNC(=O)[C@H](CCCNC(=N)N)NC(=O)CNC(=O)[C@H]([C@@H](C)O)NC(=O)[C@@H](NC(=O)[C@H](CCCNC(=N)N)NC(=O)CNC(=O)CN2CCN(CC(=O)O)CCN(CC(=O)O)CCN(CC(=O)O)CC2)CSSC[C@@H](C(=O)N[C@@H](Cc2ccc(O)cc2)C(=O)N2CCC[C@H]2C(=O)N[C@@H](CC(=O)O)C(=O)NCCOCCOCCOCCOCC(=O)N[C@@H](CCCCNC(=O)CCCc2ccc(C(F)(F)F)cc2)C(=O)O)NC(=O)[C@H](CC(C)C)NC(=O)[C@H](CCCNC(=N)N)NC(=O)CNC1=O [SFLAP3-ABCF3] ({DOTA}-GRCTGRGDLGRLCYPD[NH(CH2CH2O)4CH2CO]K(X1)-OH; disulfide 3-13),percentage bound to albumin protein,"[3]; 64Cu-labeled, filtration assay, FIG. 6",~75%
[N-]=[N+]=NCCCC[C@H](NC(=O)CN1CCN(CC(=O)O)CCN(CC(=O)O)CCN(CC(=O)O)CC1)C(=O)NCCCCCC(=O)N[C@H](CCCCCNC(=O)CCc1cc(F)c(F)c(F)c1)C(=O)O [hABF3P],change of albumin binding affinity versus the corresponding ABX conjugate,[3]; [5],slightly increased binding affinity
[N-]=[N+]=NCCCC[C@H](NC(=O)CN1CCN(CC(=O)O)CCN(CC(=O)O)CCN(CC(=O)O)CC1)C(=O)NCC(=O)NCCCC[C@H](NCCC(=O)NCCCCc1ccc(C(F)(F)F)cc1)C(=O)O [εABCF3],change of albumin binding affinity versus the corresponding ABX conjugate,[3]; [5],significantly decrease its binding affinity
